The values that follow are results of earlier work, collected in PMC4492579, “Potent and Selective Triazole-Based Inhibitors of the Hypoxia-Inducible Factor Prolyl-Hydroxylases with Activity in the Murine Brain” (PLoS ONE, 2015).

Set-up in all cases: method as in PMID 26682036
Holding throughout (settings): cited from earlier work

One data set concerns the target T1, JMJD2C (KDM4C) (Homo sapiens, UniProt Q9H3R0).
T1 sequence (Q9H3R0 1-1056): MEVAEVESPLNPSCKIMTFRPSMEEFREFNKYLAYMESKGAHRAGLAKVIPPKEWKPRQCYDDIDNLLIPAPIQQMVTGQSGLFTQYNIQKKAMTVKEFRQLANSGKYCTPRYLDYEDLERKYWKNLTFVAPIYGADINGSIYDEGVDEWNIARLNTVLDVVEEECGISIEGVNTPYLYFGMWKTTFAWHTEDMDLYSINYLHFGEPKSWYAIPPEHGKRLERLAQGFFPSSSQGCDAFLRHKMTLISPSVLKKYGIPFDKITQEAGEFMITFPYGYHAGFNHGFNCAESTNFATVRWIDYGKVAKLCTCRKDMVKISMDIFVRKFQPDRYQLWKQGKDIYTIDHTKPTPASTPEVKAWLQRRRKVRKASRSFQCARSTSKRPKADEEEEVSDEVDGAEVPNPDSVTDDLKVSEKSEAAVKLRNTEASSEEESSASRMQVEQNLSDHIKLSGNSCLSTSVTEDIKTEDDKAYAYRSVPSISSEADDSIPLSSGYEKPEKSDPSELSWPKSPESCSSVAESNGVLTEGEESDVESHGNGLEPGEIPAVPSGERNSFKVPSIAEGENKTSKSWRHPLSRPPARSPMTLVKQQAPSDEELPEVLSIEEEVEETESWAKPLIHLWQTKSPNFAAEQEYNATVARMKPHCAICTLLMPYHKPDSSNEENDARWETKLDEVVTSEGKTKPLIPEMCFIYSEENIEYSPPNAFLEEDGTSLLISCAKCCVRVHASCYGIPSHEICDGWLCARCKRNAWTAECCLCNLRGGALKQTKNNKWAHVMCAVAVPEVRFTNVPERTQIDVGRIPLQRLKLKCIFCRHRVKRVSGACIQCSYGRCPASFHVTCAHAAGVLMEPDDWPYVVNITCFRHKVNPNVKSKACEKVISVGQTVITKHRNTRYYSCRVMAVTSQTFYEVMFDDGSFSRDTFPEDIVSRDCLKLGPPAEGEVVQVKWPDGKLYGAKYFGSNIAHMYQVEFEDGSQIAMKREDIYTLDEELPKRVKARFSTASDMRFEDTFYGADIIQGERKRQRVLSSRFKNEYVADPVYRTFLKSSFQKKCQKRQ

The target in the next data set is T2, FBXL11 (KDM2A) (Homo sapiens, UniProt Q9Y2K7).
T2 sequence (Q9Y2K7 1-1162): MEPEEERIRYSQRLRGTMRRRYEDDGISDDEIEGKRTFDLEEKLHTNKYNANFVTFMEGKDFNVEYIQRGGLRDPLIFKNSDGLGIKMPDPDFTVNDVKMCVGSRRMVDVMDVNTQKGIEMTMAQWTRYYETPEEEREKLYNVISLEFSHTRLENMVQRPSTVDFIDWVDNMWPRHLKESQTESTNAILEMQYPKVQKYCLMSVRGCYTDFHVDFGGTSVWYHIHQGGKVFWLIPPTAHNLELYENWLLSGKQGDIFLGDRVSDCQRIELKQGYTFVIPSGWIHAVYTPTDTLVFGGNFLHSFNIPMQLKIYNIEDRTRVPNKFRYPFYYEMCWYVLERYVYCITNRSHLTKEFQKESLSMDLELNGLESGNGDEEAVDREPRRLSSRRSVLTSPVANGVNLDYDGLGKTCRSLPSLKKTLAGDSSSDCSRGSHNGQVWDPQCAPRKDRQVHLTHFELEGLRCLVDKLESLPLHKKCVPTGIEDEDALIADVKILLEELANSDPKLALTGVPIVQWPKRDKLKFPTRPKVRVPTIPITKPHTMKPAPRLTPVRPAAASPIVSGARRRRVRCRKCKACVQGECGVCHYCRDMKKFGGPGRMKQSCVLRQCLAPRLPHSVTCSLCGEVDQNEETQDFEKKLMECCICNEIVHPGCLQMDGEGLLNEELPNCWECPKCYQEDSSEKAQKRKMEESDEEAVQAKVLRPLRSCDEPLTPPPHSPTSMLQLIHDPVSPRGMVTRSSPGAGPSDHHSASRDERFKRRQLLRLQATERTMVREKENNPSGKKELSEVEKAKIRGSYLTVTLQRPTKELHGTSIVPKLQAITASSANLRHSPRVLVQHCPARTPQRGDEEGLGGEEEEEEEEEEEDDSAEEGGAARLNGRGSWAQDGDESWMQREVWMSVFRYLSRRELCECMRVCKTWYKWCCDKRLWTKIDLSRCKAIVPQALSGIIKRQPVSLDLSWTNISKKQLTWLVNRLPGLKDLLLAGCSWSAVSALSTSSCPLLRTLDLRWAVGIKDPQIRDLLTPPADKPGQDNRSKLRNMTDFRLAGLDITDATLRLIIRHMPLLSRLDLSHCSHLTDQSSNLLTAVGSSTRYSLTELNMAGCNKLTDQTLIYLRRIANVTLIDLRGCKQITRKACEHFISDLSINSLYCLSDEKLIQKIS

In another data set the target is JARID1C (KDM5C) (Homo sapiens, UniProt P41229).
JARID1C (KDM5C), sequence (P41229 whole entry): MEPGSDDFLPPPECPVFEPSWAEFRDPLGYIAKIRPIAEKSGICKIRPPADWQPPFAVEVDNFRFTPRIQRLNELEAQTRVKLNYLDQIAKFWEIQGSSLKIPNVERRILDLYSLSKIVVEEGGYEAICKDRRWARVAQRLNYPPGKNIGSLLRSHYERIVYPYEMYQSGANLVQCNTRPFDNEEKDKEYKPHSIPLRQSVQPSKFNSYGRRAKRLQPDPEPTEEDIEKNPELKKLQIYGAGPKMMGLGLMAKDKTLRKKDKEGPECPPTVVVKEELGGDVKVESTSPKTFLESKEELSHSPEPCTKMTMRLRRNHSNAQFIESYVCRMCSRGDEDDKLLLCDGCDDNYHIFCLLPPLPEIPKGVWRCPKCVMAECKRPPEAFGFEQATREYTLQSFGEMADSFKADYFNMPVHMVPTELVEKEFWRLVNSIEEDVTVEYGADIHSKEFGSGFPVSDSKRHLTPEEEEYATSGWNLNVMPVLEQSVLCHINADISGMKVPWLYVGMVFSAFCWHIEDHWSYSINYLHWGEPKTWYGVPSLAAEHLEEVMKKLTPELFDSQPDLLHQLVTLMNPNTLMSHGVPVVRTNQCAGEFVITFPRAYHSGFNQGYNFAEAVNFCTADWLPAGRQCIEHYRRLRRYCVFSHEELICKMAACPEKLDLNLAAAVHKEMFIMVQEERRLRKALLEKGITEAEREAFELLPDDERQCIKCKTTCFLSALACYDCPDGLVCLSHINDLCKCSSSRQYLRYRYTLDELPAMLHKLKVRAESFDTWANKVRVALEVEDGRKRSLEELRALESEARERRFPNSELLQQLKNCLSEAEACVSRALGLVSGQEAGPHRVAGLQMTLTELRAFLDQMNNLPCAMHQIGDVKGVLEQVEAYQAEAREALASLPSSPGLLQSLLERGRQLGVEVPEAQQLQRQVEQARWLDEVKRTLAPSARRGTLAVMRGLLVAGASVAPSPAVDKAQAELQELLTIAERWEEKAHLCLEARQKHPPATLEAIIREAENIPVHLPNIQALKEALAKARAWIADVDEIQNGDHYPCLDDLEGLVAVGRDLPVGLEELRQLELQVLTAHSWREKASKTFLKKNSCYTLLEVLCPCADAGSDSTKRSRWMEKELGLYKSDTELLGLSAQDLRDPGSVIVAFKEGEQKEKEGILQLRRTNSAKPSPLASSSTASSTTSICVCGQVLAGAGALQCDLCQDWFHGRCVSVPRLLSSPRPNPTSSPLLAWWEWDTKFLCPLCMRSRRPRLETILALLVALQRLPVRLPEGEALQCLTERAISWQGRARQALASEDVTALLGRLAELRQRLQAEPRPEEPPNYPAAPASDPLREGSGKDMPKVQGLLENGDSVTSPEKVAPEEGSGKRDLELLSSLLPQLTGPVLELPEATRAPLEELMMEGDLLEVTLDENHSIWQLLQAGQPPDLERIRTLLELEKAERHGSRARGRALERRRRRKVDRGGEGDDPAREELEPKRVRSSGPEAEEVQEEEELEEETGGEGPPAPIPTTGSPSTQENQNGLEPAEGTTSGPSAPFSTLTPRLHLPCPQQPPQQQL

pIC50: −log10 of the molar value.

The pIC50 is the negative decadic logarithm of the IC50, by convention in mol/L. For the molecule `O=C(O)CNC(=O)c1c(O)c2ccccc2n(Cc2ccccc2)c1=O` [IOX2], the figures for the pIC50 at JMJD2C (KDM4C), on FBXL11 (KDM2A) and on JARID1C (KDM5C) were 4.00, 4.28 and 3.80, respectively.
